Results: patent US9340616B2, “Methods and compositions for heptameric targeting ligands” (The University of North Carolina at Chapel Hill, priority 2011, dated 2016)

How the values were obtained:
[1] = test system: HER2-positive SK-OV3 cells; test: MTS cell proliferation assay, SK-OV3; type: cell-based; conditions: 10 μM, 24 h, positive control
Method: (§1) FIGS. 10A-C. Cellular toxicity of heptameric molecules. A) A431 (EGFR), B) SK-OV3 (HER2), and C) LNCaP cells were incubated with 1 uM of each of the heptamer molecules for 24 hours at 37° C. Cisplatin (10 uM) was also incubated with each of the cells as a positive control. Cells without incubation with any proteins or cisplatin were used as a negative control.
(§2) A CellTiter96 Aqueous Non-Radioactive Cell Proliferation Assay kit from Promega (Madison, Wis.) was used for MTS assay. Approximately 10^4 cells were seeded on each well in a 96-well plate and grown for 16 hours at 37° C. Each heptameric molecule was incubated with the cells for 24 hours and Cis-platinum (II) diamine dichloride (cisplatin, CDDP) (Sigma-Aldrich Chemical Co) was used as positive control. 20 μl of MTS/PMS solution was added into each well followed by incubation for 4 hours at 37° C. The absorbance at 490 nm was recorded using an ELISA plate reader.
(§3) A CellTiter96 Aqueous Non-Radioactive Cell Proliferation Assay kit from Promega (Madision, Wis.) was used for the MTS assay. Approximately 1×10^4 cells were seeded in each well of a 96-well plate and grown for 16 h at 37° C. Each heptameric molecule was incubated with the cells for 24 h. 10 μM Cis-platinum (II) diamine dichloride (Sigma-Aldrich Chemical Co, St Louis, Mo.) was used as a positive control. […] The absorbance at 490 nm was recorded using an ELISA plate reader.

EGFR-positive A431 cells = test: MTS cell proliferation assay, A431; type: cell-based; conditions: 10 μM, 24 h, positive control
Method: as §1, §2, §3

N.N.[Cl][Pt][Cl] [cisplatin, Cis-platinum (II) diamine dichloride]
cell proliferation inhibited to [1]: 50% | cell proliferation inhibited to (EGFR-positive A431 cells): 50%
